According to patent US20230128402A1 (The Trustees of Princeton University, priority 2020, published 2023):

Experiments:
HCT116 cells = assay: HCT116 left ventricle injection metastasis xenograft; assay type: in vivo, mouse; conditions: 50 mg/kg subcutaneously every day, paclitaxel 25 mg/kg every three days
Method: In another xenograft experiment, mice were injected HCT116 cells via left ventricle injection and monitored with BLI on a weekly basis during the experiment. MBE1.5 or vehicle control were injected subcutaneously every day following injection at 50 mg/kg. At day 7 following injection, paclitaxel was dosed at 25 mg/kg every three days for a total of 6 injections. N=10 mice per group.

[1] = male, CD-1/C57BL/6, mouse, in vivo
[2] = system: Sum-159-M1a-Aldh 1a3 cells; assay: Sum-159-M1a-Aldh1a3 tail-vein lung metastasis xenograft; assay type: in vivo, mouse; conditions: 25 mg/kg daily, 12 days, with paclitaxel 12.5 mg/kg every other day
Method: In another xenograft experiment, mice were injected with Sum-159-M1a-Aldh 1a3 cells via tail-vein injection, and were randomized following injection. Mice were treated with MBE1.5 (25 mg/kg daily) or vehicle, and paclitaxel (12.5 mg/kg every other day) for twelve days. Lung metastasis progression was tracked by intravital bioluminescence.

ALDH1a3 [3] = target: T1, ALDH1a3 (Mus musculus, UniProt Q9JHW9); assay: ALDEFLUOR assay on pancreatic cells from diabetic and lean mice; assay type: cell-based; conditions: 10 μM; diabetic vs healthy mice
T1 construct: from tissue; host or cells: pancreatic cells from C57/BL6 mice (diet-induced diabetic and lean)
T1 sequence (Q9JHW9 1-512): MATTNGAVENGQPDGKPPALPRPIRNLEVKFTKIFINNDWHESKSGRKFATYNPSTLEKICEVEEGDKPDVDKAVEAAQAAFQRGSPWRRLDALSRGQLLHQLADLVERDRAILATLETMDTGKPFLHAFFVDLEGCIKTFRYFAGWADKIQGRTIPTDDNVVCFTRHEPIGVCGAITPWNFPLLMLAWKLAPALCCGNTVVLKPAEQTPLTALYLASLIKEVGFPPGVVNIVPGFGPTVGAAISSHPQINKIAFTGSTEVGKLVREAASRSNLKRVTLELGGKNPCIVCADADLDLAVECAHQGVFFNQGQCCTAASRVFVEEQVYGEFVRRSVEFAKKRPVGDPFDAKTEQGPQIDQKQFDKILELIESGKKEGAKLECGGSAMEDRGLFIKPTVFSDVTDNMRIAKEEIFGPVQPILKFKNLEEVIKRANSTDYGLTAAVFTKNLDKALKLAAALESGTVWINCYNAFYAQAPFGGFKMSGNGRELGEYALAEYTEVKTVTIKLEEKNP
Method: In the ALDEFLUOR™ assay used in this example, 14 month-old C57/BL6 high fat diet-induced severe obese/diabetic mice and 3 month-old lean C57/B16 mice were euthanized and pancreatic cells were extracted with 1 mg/mL Collagenase 1 digestion in PBS for 1 hour at 37 C. Single cell suspensions were obtained by filtration through 40 μm cell sieves. Cells were washed by two sequential centrifugations and resuspension in PBS.
(§1) Cells were counted, centrifuged and resuspended at 1,000,000 cells/mL in ALDEFLUOR™ buffer (Stemcell Technologies). ALDEFLUOR™ substrate (Stemcell Technologies, 1:200) and test compound (MBE 1.5 at 10 μM or 1 mM DEAB were added to cell suspension and incubated at 37° C. for 45 minutes with vortexing every 15 minutes. Cells were centrifuged and resuspended in ALDEFLUOR™ buffer with DAPI at 5 μg/mL. Samples were analyzed with the BD LSR2 flow cytometry platform.
(§2) Gating for background fluorescence was performed using 1 millimolar DEAB as a negative control.

SUM 159-M1-p44 cells = assay: SUM 159-M1-p44 tail-vein lung metastasis xenograft; assay type: in vivo, mouse; conditions: 50 mg/kg with 25 mg/kg paclitaxel on days 17, 19 and 21
Method: In another xenograft experiment, mice were injected with SUM 159-M1-p44 cells via tail-vein injection, as described above, and randomized following injection. Metastatic burden was imaged on day 16 via intravital imaging. Mice were then treated with paclitaxel (25 mg/kg) and either vehicle or MBE1.5 (50 mg/kg) on days 17, 19 and 21. Lung metastatic burden was then imaged on day 22. Signals were normalized to day 16.

ALDH1a3 [4] = target: T2, ALDH1a3 (Homo sapiens, UniProt P47895); assay: ALDEFLUOR assay in SUM159-M1a-Aldh1a3 cells; assay type: cell-based; set-up: lentiviral vectors containing either the vector backbone or full-length human Aldh1a3; expressed in transfected cells; host or cells: SUM159-M1a human breast cancer cells, lentiviral pLex vector
T2 sequence (P47895 1-512): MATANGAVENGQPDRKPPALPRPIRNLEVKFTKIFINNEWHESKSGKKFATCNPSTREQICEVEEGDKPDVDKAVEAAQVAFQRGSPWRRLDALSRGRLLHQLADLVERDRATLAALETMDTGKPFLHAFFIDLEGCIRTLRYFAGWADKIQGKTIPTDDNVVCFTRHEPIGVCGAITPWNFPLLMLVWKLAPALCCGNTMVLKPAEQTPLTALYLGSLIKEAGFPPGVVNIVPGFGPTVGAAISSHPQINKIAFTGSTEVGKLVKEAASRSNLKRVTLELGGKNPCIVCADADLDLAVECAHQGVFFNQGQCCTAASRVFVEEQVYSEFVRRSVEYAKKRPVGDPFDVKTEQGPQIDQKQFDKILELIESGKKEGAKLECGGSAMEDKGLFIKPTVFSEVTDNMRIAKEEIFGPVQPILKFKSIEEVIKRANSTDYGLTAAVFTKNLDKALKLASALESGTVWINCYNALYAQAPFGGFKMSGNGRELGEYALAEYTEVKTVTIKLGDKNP
Method: as §1, with “compound” for “compound (MBE 1.5 at 10 μM”, “platform. Gating was performed using DEAB as a negative control.” for “platform.”
as §2
The [inh-min]threshold was set at the lower bound of two standard deviations of control samples, while the IC50 threshold was set at 50% of the average of control samples.
An ALDEFLUOR™ assay was also used to assess the relative activity of several compounds described herein against SUM159-M1a-Aldh1a3 cells.

HEK293T cells = assay: LC-MS metabolite quantification in HEK293T cells; assay type: cell-based; conditions: 10 uM, 1 hour
Method: HEK293T cells were grown to full confluence and media was exchanged with complete DMEM media supplemented with 10% dialyzed fetal bovine serum. Three replicate plates per group were treated with 10 uM MBE1.5 or control DMSO for 1 hour followed by organic extraction with 40:40:20 methanol:acetonitrile:water w/0.5% formic acid (ice cold). Plates were immediately transferred to ice and incubated for 5 minutes then 50 ul 15% NH4HCO3 was added. Cells lysates were scraped and centrifuged at 15000 RCF. Supernatants were then analyzed via LC-MS to quantify various metabolites using standard metabolomic protocols.

in vivo = conditions: male, CD-1/C57BL/6, mouse
MDA-MB-468 cells = assay: MDA-MB-468 mammary fat pad primary tumor xenograft; assay type: in vivo, mouse; conditions: 25 mg/kg daily, 12 days
Method: In yet another xenograft experiment, mice were injected with MDA-MB-468 cells via mammary fat pad, and were randomized following injection. […] Primary tumor measurements were taken by caliper between each treatment group.

[5] = with paclitaxel 12.5 mg/kg every other day

Compound: CCc1ccccc1C(=O)Nc1cc2c(cc1F)NC(=O)CC2 [Compound 4, 2-ethyl-N-(7-fluoro-2-oxo-3,4-dihydro-1H-quinolin-6-yl)benzamide]
- colorectal cancer metastasis (BLI) (HCT116 cells): slows colorectal cancer metastasis
- time plasma concentrations exceed 5-fold the IC50 [1]: > 10 h
- survival [2]: extended survival in mice with late-stage established breast cancer lung metastasis
- percentage of ALDEFLUOR-positive pancreatic islet cells (ALDH1a3 [3]): high-affinity compound for the inhibition of ALDH1a3 activity
- lung metastatic burden (BLI) (SUM 159-M1-p44 cells): caused regression of established metastatic disease
- inhibition of ALDH1a3 activity (percentage of ALDEFLUOR-positive cells) (ALDH1a3 [4]; 100 nM, FIG. 6A): high-affinity compounds for the inhibition of ALDH1a3 activity
- inhibitory activity detected at concentrations as low as (ALDH1a3 [4]; SUM 159-M1a-Aldh1a3 cells, FIG. 6B): 2 nM
- NADH (LC-MS) (HEK293T cells): depletion of NADH
- adipate semialdehyde (LC-MS) (HEK293T cells): increases in adipate semialdehyde
- bioavailability (in vivo): 62.5%
- half-life (in vivo; iv, 1 mg/kg): 1.22 h
- half-life (in vivo; po, 10 mg/kg): 1.7 h
- tumors completely eliminated (MDA-MB-468 cells; n=6, with paclitaxel): tumors of two mice in the MBE1.5 treatment group were completely eliminated
- gross toxicity (body mass) (MDA-MB-468 cells; [5]): no gross toxicity
- primary tumor volume (MDA-MB-468 cells; [5]): caused regression of primary breast tumors
